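Cultured in 96-well plates, cells were exposed to test compound for 48 hours across five concentrations. GI50: concentration for 50% inhibition of growth. TGI marks complete inhibition of growth.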
Key:
Assay in all cases: DTP human tumour cell line panel, 48 h
[1] = system: UO-31 renal
[2] = system: CAKI-1 renal
[3] = system: OVCAR-5 ovarian
[4] = system: U251 CNS
[5] = system: HL-60(TB) leukemia
[6] = system: BT-549 breast
[7] = system: A549 NSCLC
[8] = system: NCI-H23 lung
[9] = system: IGROV1 ovarian
[10] = system: SR leukemia
[11] = system: K-562 leukemia
[12] = system: MCF7 breast
[13] = system: DU-145 prostate
[14] = system: OVCAR-8 ovarian
[15] = system: NCI-H522 lung
[16] = system: TK-10 renal
[17] = system: SW-620 colon
[18] = system: SK-MEL-5 melanoma
[19] = system: CCRF-CEM leukemia
[20] = system: ACHN renal
[21] = system: SF-268 CNS
[22] = system: MDA-MB-435
[23] = system: A498 renal
[24] = system: MDA-MB-231 breast
[25] = system: OVCAR-4 ovarian
[26] = system: MOLT-4 leukemia
[27] = system: HOP-62 NSCLC
[28] = system: NCI-H460 lung
[29] = system: SK-OV-3 ovarian
[30] = system: HOP-92 NSCLC
[31] = system: MDA-MB-468 breast
[32] = system: KM12 colon
[33] = system: SK-MEL-28 melanoma
[34] = system: SNB-19 CNS
[35] = system: 786-0 renal
[36] = system: UACC-62 melanoma
[37] = system: SN12C renal
[38] = system: NCI/ADR-RES ovarian
[39] = system: NCI-H226 lung
[40] = system: RXF 393 renal
[41] = system: EKVX NSCLC
[42] = system: LOX IMVI melanoma
[43] = system: UACC-257 melanoma
[44] = system: HS 578T breast
[45] = system: RPMI-8226 leukemia
[46] = system: SNB-75 CNS
[47] = system: OVCAR-3 ovarian
[48] = system: COLO 205 colon
[49] = system: SK-MEL-2 melanoma
[50] = system: SF-295 CNS
[51] = system: M14 melanoma
[52] = system: MALME-3M melanoma
[53] = system: HCT-15 colon
[54] = system: SF-539 CNS
[55] = system: T-47D breast
[56] = system: HT29 colon
[57] = system: HCC-2998 colon
[58] = system: PC-3 prostate
[59] = system: HCT-116 colon

For Cc1ccc(C2CC(c3ccc(NC(=O)Nc4ccccc4)cc3)=NN2c2ccc(S(N)(=O)=O)cc2)cc1 (configuration not stated), the GI50 [1] was 3.45 µM, the TGI [1] was 14.6 µM and the GI50 [2] was 10.4 µM. The TGI [2] was 22.5 µM, the GI50 [3] was 12.4 µM and the TGI [3] was 25.2 µM. The GI50 [4] was 6.86 µM, the TGI [4] was 20.3 µM and the GI50 [5] was 2.13 µM. The TGI [5] was 10.6 µM, the GI50 [6] was 7.84 µM and the TGI [6] was 20.9 µM. For the same molecule, the GI50 [7] was 3.36 µM, the TGI [7] was 14.7 µM and the GI50 [8] was 3.57 µM. It also gave a TGI [8] of 14.3 µM, a GI50 [9] of 6.9 µM and a TGI [9] of 20.3 µM. It also gave a GI50 [10] of 4.28 µM, a TGI [10] of 26.7 µM and a GI50 [11] of 3.94 µM. The TGI [11] was > 100 µM, the GI50 [12] was 3.56 µM and the TGI [12] was 15.2 µM. For the same molecule, the GI50 [13] was 10.2 µM, the TGI [13] was 23 µM and the GI50 [14] was 5.58 µM. It also gave a TGI [14] of 21.4 µM, a GI50 [15] of 2.84 µM and a TGI [15] of 15 µM. It also gave a GI50 [16] of 9.93 µM, a TGI [16] of 22.2 µM and a GI50 [17] of 5.53 µM. For the same molecule, the TGI [17] was 22.3 µM, the GI50 [18] was 15.5 µM and the TGI [18] was 29.5 µM. It also gave a GI50 [19] of 3.98 µM, a TGI [19] of 22 µM and a GI50 [20] of 4.16 µM. It also gave a TGI [20] of 14.9 µM, a GI50 [21] of 10.2 µM and a TGI [21] of 24 µM. The GI50 [22] was 6.83 µM, the TGI [22] was 21.3 µM and the GI50 [23] was 9.06 µM. The TGI [23] was 21.3 µM, the GI50 [24] was 12.3 µM and the TGI [24] was 25.3 µM. For the same molecule, the GI50 [25] was 4.5 µM, the TGI [25] was 17.2 µM and the GI50 [26] was 2.98 µM. The TGI [26] was 14.1 µM, the GI50 [27] was 13.3 µM and the TGI [27] was 28.7 µM. For the same molecule, the GI50 [28] was 2.99 µM, the TGI [28] was 12.5 µM and the GI50 [29] was 12.9 µM. It also gave a TGI [29] of 27.1 µM, a GI50 [30] of 3.21 µM and a TGI [30] of 14.8 µM. The GI50 [31] was 10.2 µM, the TGI [31] was 24 µM and the GI50 [32] was 5.57 µM. The TGI [32] was 22.1 µM, the GI50 [33] was 10.5 µM and the TGI [33] was 22.5 µM. It also gave a GI50 [34] of 12.7 µM, a TGI [34] of 25.4 µM and a GI50 [35] of 3.86 µM. The TGI [35] was 15.7 µM, the GI50 [36] was 10.4 µM and the TGI [36] was 22.6 µM. The GI50 [37] was 3.92 µM, the TGI [37] was 14.5 µM and the GI50 [38] was 2.83 µM. For the same molecule, the TGI [38] was 11 µM, the GI50 [39] was 10.9 µM and the TGI [39] was 24.9 µM. For the same molecule, the GI50 [40] was 13.1 µM, the TGI [40] was 27.6 µM and the GI50 [41] was 4.04 µM. The TGI [41] was 16.4 µM, the GI50 [42] was 1.76 µM and the TGI [42] was 3.23 µM. It also gave a GI50 [43] of 8.48 µM, a TGI [43] of 22 µM and a GI50 [44] of 14.8 µM. It also gave a TGI [44] of 39.1 µM, a GI50 [45] of 3.8 µM and a TGI [45] of 35.9 µM. The GI50 [46] was 10.7 µM, the TGI [46] was 24 µM and the GI50 [47] was 3.97 µM. For the same molecule, the TGI [47] was 18.7 µM, the GI50 [48] was 4.22 µM and the TGI [48] was 18.6 µM. For the same molecule, the GI50 [49] was 7.4 µM, the TGI [49] was 21.5 µM and the GI50 [50] was 5.34 µM. For the same molecule, the TGI [50] was 18.8 µM, the GI50 [51] was 9.27 µM and the TGI [51] was 27.2 µM. The GI50 [52] was 7.88 µM, the TGI [52] was 20.8 µM and the GI50 [53] was 4.35 µM. The TGI [53] was 16.9 µM, the GI50 [54] was 12.7 µM and the TGI [54] was 25.4 µM. The GI50 [55] was 3.37 µM, the TGI [55] was 14.6 µM and the GI50 [56] was 2.3 µM. It also gave a TGI [56] of 7.45 µM, a GI50 [57] of 2.65 µM and a TGI [57] of 8.77 µM. It also gave a GI50 [58] of 2.6 µM, a TGI [58] of 12.8 µM and a GI50 [59] of 2.99 µM. For the same molecule, the TGI [59] was 13.5 µM.

OCc1[nH]nc2cc(Nc3ncc4ccc(Br)c(OC5CCC(O)CC5)c4n3)ccc12 (configuration not stated) showed a GI50 [1] of 0.0288 µM, a TGI [1] of 0.278 µM and a GI50 [2] of 0.0212 µM. The TGI [2] was 2.4 µM, the GI50 [3] was 0.05 µM and the TGI [3] was 0.316 µM. The GI50 [4] was 0.0391 µM, the TGI [4] was > 100 µM and the GI50 [5] was 0.0147 µM. It also gave a TGI [5] of 0.105 µM, a GI50 [6] of 0.0274 µM and a TGI [6] of 0.133 µM. For the same molecule, the GI50 [7] was 0.157 µM, the TGI [7] was > 100 µM and the GI50 [8] was 0.0402 µM. It also gave a TGI [8] of 0.257 µM, a GI50 [9] of 0.0326 µM and a TGI [9] of 1.19 µM. The TGI [10] was > 100 µM, the GI50 [11] was 0.0788 µM and the TGI [11] was > 100 µM. It also gave a GI50 [12] of 0.0199 µM, a TGI [12] of 1.1 µM and a GI50 [13] of 0.0359 µM. For the same molecule, the TGI [13] was > 100 µM, the GI50 [14] was 0.0405 µM and the TGI [14] was > 71.9 µM. For the same molecule, the GI50 [15] was 0.202 µM, the TGI [15] was 0.744 µM and the GI50 [16] was 0.0787 µM. For the same molecule, the TGI [16] was 0.729 µM, the GI50 [17] was 0.0257 µM and the TGI [17] was 1.96 µM. It also gave a GI50 [18] of 0.027 µM, a TGI [18] of 0.428 µM and a GI50 [19] of 0.0314 µM. For the same molecule, the TGI [19] was > 100 µM, the GI50 [20] was 0.0231 µM and the GI50 [21] was 0.0335 µM. The TGI [21] was 1.32 µM, the GI50 [22] was 0.0399 µM and the TGI [22] was 2.47 µM. For the same molecule, the GI50 [23] was 0.0495 µM, the TGI [23] was 0.231 µM and the GI50 [24] was 0.0301 µM. The TGI [24] was 0.505 µM, the GI50 [25] was 0.0442 µM and the TGI [25] was 1.76 µM. For the same molecule, the GI50 [26] was 0.0372 µM, the TGI [26] was > 100 µM and the GI50 [27] was 0.034 µM. The TGI [27] was 22.8 µM, the GI50 [28] was 0.0474 µM and the TGI [28] was 4.38 µM. The GI50 [29] was 0.376 µM, the TGI [29] was > 100 µM and the GI50 [30] was 0.0922 µM. The TGI [30] was > 100 µM, the GI50 [31] was 0.0301 µM and the TGI [31] was 0.1 µM. The GI50 [32] was 0.0347 µM, the TGI [32] was 0.358 µM and the GI50 [33] was 0.0499 µM. The TGI [33] was 0.963 µM, the GI50 [34] was 0.0258 µM and the TGI [34] was > 44.8 µM. For the same molecule, the GI50 [35] was 0.0371 µM, the TGI [35] was 2.7 µM and the GI50 [36] was 0.0359 µM. It also gave a TGI [36] of 0.379 µM, a GI50 [37] of 0.035 µM and a TGI [37] of 20 µM. The GI50 [38] was 0.226 µM, the TGI [38] was 12.2 µM and the GI50 [39] was 0.0164 µM. It also gave a TGI [39] of 0.077 µM, a GI50 [40] of 0.0193 µM and a TGI [40] of 0.0467 µM. For the same molecule, the GI50 [41] was 0.0673 µM, the TGI [41] was 0.414 µM and the GI50 [42] was 0.0164 µM. It also gave a TGI [42] of 0.0592 µM, a GI50 [43] of 0.234 µM and a TGI [43] of 9.78 µM. The GI50 [44] was 0.0444 µM, the TGI [44] was 1.85 µM and the GI50 [45] was 0.276 µM. The TGI [45] was > 100 µM, the GI50 [46] was 0.0359 µM and the TGI [46] was 0.296 µM. The GI50 [47] was 0.0256 µM, the TGI [47] was 0.171 µM and the GI50 [48] was 0.0317 µM. For the same molecule, the TGI [48] was 0.145 µM, the GI50 [49] was 0.0476 µM and the TGI [49] was 0.213 µM. For the same molecule, the GI50 [50] was 0.0406 µM, the TGI [50] was 0.508 µM and the GI50 [51] was 0.045 µM. It also gave a TGI [51] of 1.74 µM, a GI50 [52] of 0.0882 µM and a TGI [52] of 0.517 µM. It also gave a GI50 [53] of 0.036 µM, a TGI [53] of 1.54 µM and a GI50 [54] of 0.0225 µM. For the same molecule, the TGI [54] was 0.0696 µM, the GI50 [55] was 0.0411 µM and the TGI [55] was 0.904 µM. For the same molecule, the GI50 [56] was 0.103 µM, the TGI [56] was 0.487 µM and the GI50 [57] was 0.0512 µM. For the same molecule, the TGI [57] was 0.519 µM, the GI50 [58] was 0.0502 µM and the TGI [58] was > 100 µM.
